Consider 8 compounds from patent publication US10407445B2, “Hepatitis C virus inhibitors” (ENANTA PHARMACEUTICALS, INC., priority 2013, dated 2019).

What all share (format): cell-based
Assay [1] relates to HCV GT 1a replicon. The experiment in a line: HCV replicon assay, stable GT 1a replicon (Renilla luciferase). The conditions noted are these: Hepatitis C virus, GT1A. The method, then:
(§1) The activity of compounds was determined against HCV replicons representing genotypes (GT) 1a, 1b, 2a, and 3a. To generate stable Huh-7.5-based cell lines, HCV replicons were engineered to express the Renilla luciferase reporter (hRluc) fused to the neomycin phosphotransferase (Neo) gene. GT2a and GT3a HCV replicons were based on the JFH-1 subgenomic replicon (Kato et al. 2003 Gastroenterology, 125:1808-1817), in which the NS5A gene was replaced with that of strains J6 and S52 (GT2a and G3a, respectively). The activity of compounds against GT1a replicons encoding NS5A mutations (M28T, Q30R, L31M, Y93C, and Y93H) was also determined in a transient replication assay. The parental GT1a and GT2a replicons (pH/SG-Neo(L+I) and pSG-Neo-JFH1, respectively) were licensed from Apath LLC (Saint Louis, Mo.). The parental GT 1b replicon (pFKi389lucubineo_3_3′_ET) was licensed from ReBLikon GmbH (Germany). HCV replicons were constructed by standard molecular biology techniques described below. All replicon constructs were verified by restriction enzyme digestion and DNA sequencing.
pH/SG-Neo(L+I) was modified to add the firefly luciferase reporter gene and additional adaptive mutations by replacing the pH/SG-Neo(L+I) NS3-NS5A coding region with the corresponding sequence of pH77-S, creating pH/SG-lucubineo-H77S as described (Borawski J et al. 2009, J Virol 83: 10058-10074). Subsequently, the firefly luciferase-Neo cassette was replaced with the hRluc-Neo cassette. To create a unique cloning site, the NotI restriction site in NS5B was removed using QuickChange II XL Site-Directed Mutagenesis Kit (Agilent) and the following primers: NotI KO Fwd 5′-CTCAAACTCACTCCAATAGCTGCCGCTGGCCGGCTGGAC-3′(G→T mutation removing NotI site underlined) (SEQ. ID No. 1) and NotI KO Rev 5′-GTCCAGCGGGCCAGCGGCAGCTATTGGAGTGAGTTTGAG-3′(C→A mutation removing NotI site underlined) (SEQ. ID No. 2). The resulting vector, pH/SG-lucubineo-H775-NotIKO, was sequenced to confirm the NS5B gene. The hRluc-Neo cassette was PCR amplified from pF9 cytomegalovirus (CMV) hRluc-Neo Flexi(R) (Promega) using Accuprime Super Mix II (Invitrogen) and the following primers, which introduce restriction sites: […]
The amplification product was subcloned into pCR2.1-TOPO (Invitrogen). The resulting plasmid was digested with AscI and NotI, and the excised hRluc-Neo fragment was ligated using the Promega Rapid Ligation Kit (Promega) into pH/SG-lucubineo-H775-NotIKO digested with the same enzymes.
Stable HCV replicon cell lines were grown in complete media (Dulbecco's modified Eagle medium [DMEM], 2 mM L-glutamine, 0.1 mM essential amino acids, 1 mM sodium pyruvate, 10% heat inactivated fetal bovine serum) with the addition 500 μg/ml […] (G418). Huh7-lunet cells were maintained in the same medium without the addition of G418. Cells were routinely passaged at a dilution of 1:4 two times a week. The assay medium for both luciferase reporter HCV replicon and cytotoxicity assays used phenol red-free DMEM and lacked G418. For each stable replicon assay, a sixteen point half-log dilution series of compound was stamped (0.5 ul compound per well) into three replica 384-well plates, to which cells were added directly (4000 cells/well). For the transient replication assay, Huh7-lunet cells in ice-cold phosphate buffered saline (PBS) were electroporated (BioRad electroporator; 950 uF, 270V) with 10 ug purified in vitro transcribed HCV replicon RNA, followed by resuspension in complete media and plating (8000 cells/well) into compound stamped 384-well plates. Luciferase activity of compound-treated cells was measured relative to DMSO-treated cells after 72 h incubation using RENILLA-GLO™ Luciferase Assay (Promega). Cytotoxicity (CC50) in the GT1b replicon cell line was analyzed using CELL TITER-GLO™ (Promega). […]

The test system of assay [2] is GT1a replicon encoding NS5A mutation M28T. In words: Transient replication assay, GT1a replicon with NS5A mutation M28T. To be noted: Hepatitis C virus.
Assay [3] concerns GT1a replicon encoding NS5A mutation Q30R. In words: Transient replication assay, GT1a replicon with NS5A mutation Q30R. The conditions noted are these: Hepatitis C virus.
The subject of assay [4] is GT1a replicon encoding NS5A mutation L31V. In words: Transient replication assay, GT1a replicon with NS5A mutation L31V. To be noted: Hepatitis C virus.
Assay [5] deals with GT1a replicon encoding NS5A mutation Y93C. In words: Transient replication assay, GT1a replicon with NS5A mutation Y93C. The conditions noted are these: Hepatitis C virus.
For assay [6], the system named is GT1a replicon encoding NS5A mutation Y93H. In words: Transient replication assay, GT1a replicon with NS5A mutation Y93H. To be noted: Hepatitis C virus.
Assay [7] deals with HCV GT 2a-J6 replicon. The experiment in a line: HCV replicon assay, GT2a chimeric replicon expressing NS5A from GT2a strain J6. To be noted: Hepatitis C virus, read-out: EC50 (nM) 2a-J6. The method, then: as §1
(§2) The plasmid pSG-hRlucNeo-JFH1 was generated from pSG-Neo-JFH1 (Kato et al. 2003, Gastroentrology 125:1808-1817). A fragment containing the JFH-1 5′ NTR—hRluc-Neo gene and two unique restriction sites (AgeI and PmeI) was synthesized (Integrated DNA Technologies, Coralville, Iowa). The resulting synthetic plasmid was digested with AgeI and PmeI and the excised fragment (5′NTR-hRluc-Neo) was ligated into pSG-Neo-JFH1 digested with the same enzymes to generate pSG-hRlucNeo-JFH1. To allow expression of heterologous NS5A sequences, an NS5A shuttle vector was generated from pSG-Neo-JFH1, in which the entire coding sequence of NS5A plus the first eight codons of NS5B were replaced with an AfeI restriction site. This was done by Infusion cloning (Clontech, Mountain View, Calif.) from two PCR products that were generated using pSG-Neo-JFH1 as a template and the following primer pairs:
(§3) Underlined sequences denote regions of overlap necessary for Infusion cloning. Purified PCR products were cloned directly into an NsiI/SnaBI digested pSG-Neo-JFH1 following the manufacturer's instructions to generate pSG-Neo-JFH1-5Ashuttle. The 2023 base pair AgeI/PmeI fragment from pSG-hRlucNeo-JFH1 was then ligated into pSG-Neo-JFH1-5Ashuttle to generate pSG-hRlucNeo-JFH1-5Ashuttle. To generate the 2a-2a-(J6) and 2a-3a-(S52) NS5A chimeric replicons, the full length NS5A sequences from GT2a strain J6 (accession AF177036) and GT3a strain S52 (accession GU814263), with the addition of the first eight codons of JFH-1 NS5B (5′-TCCATGTCATACTCCTGGACCGGG-3′), were synthesized by GeneArt (Life Technologies, Carlsbad Calif.). J6 and S52 NS5A sequences were then PCR amplified from the synthetic clones using the appropriate forward primer:
(§4) Underlined sequences denote regions of overlap with pSG-hRlucNeo-JFH1-5Ashuttle necessary for Infusion cloning. Purified PCR products were directly cloned into AfeI-digested shuttle vector by Infusion cloning following the manufacturer's instructions.
(§5) Stable HCV replicon cell lines were grown in complete media (Dulbecco's modified Eagle medium [DMEM], 2 mM L-glutamine, 0.1 mM essential amino acids, 1 mM sodium pyruvate, 10% heat inactivated fetal bovine serum) with the addition 500 μg/ml […] (G418). Huh7-lunet cells were maintained in the same medium without the addition of G418. Cells were routinely passaged at a dilution of 1:4 two times a week. The assay medium for both luciferase reporter HCV replicon and cytotoxicity assays used phenol red-free DMEM and lacked G418. For each stable replicon assay, a sixteen point half-log dilution series of compound was stamped (0.5 ul compound per well) into three replica 384-well plates, to which cells were added directly (4000 cells/well). […]

For assay [8], the system named is HCV GT 3a replicon. The experiment in a line: HCV replicon assay, GT2a chimeric replicon expressing NS5A from GT3a strain S52. The conditions noted are these: Hepatitis C virus, read-out: EC50 (nM) 3a. The method, then:
as §1, §2, §3, §4, §5

[9] abbreviates: read-out: 1a EC50 (nM) 1a (H77S).
Where [10] appears, read: comparative table, GT 1a, read-out: EC50 (nM) 1a.

SMILES strings stand for the structures. Read-outs that look alike come from different tables or passages of the source.

With `COC(=O)N[C@H](C(=O)N1C[C@@]2(CCCO2)C[C@H]1c1ncc(-c2ccc(-c3ccc4c(ccc5nc([C@@H]6CCCN6C(=O)[C@@H](NC(=O)OC)C(C)C)[nH]c54)c3)cc2)[nH]1)C(C)C` [drawing 231], the concentration for a half-maximal effect (EC50) came to 0.06 nM in assay [1] (setting [9]); 14 nM in assay [2] (read-out: 1a EC50 (nM) M28T); 3 nM in assay [3] (read-out: 1a EC50 (nM) Q30R); 46 nM in assay [4] (read-out: 1a EC50 (nM) L31V); 0.2 nM in assay [5] (read-out: 1a EC50 (nM) Y93C); 5 nM in assay [6] (read-out: 1a EC50 (nM) Y93H).
Take `COC(=O)N[C@H](C(=O)N1C[C@]2(CCCO2)C[C@H]1c1ncc(-c2ccc(-c3ccc4c(ccc5nc([C@@H]6CCCN6C(=O)[C@@H](NC(=O)OC)C(C)C)[nH]c54)c3)cc2)[nH]1)C(C)C` [drawing 228]: the EC50 turned out to be 0.02 nM in assay [1] (setting [9]); 0.3 nM in assay [2] (read-out: 1a EC50 (nM) M28T); 0.05 nM in assay [3] (read-out: 1a EC50 (nM) Q30R); 0.4 nM in assay [4] (read-out: 1a EC50 (nM) L31V); 0.2 nM in assay [5] (read-out: 1a EC50 (nM) Y93C); 15 nM in assay [6] (read-out: 1a EC50 (nM) Y93H).
`COC(=O)N[C@H](C(=O)N1C[C@@]2(CCCOC2)C[C@H]1c1ncc(-c2ccc(-c3ccc4c(ccc5nc([C@@H]6CCCN6C(=O)[C@@H](NC(=O)OC)C(C)C)[nH]c54)c3)cc2)[nH]1)C(C)C` [drawing 235]: the half-maximal effective concentration (EC50) in assay [1] (setting [10]) was found to be 0.01 nM; in assay [7] it was 50 nM; in assay [8], 297 nM; in assay [2] (read-out: EC50 (nM) 1a M28T), 0.03 nM; in assay [3] (read-out: EC50 (nM) 1a Q30R) it was 0.06 nM; in assay [4] (read-out: EC50 (nM) 1a L31V), 0.1 nM. The concentration for a half-maximal effect (EC50) in assay [5] (read-out: EC50 (nM) 1a Y93C) was found to be 0.02 nM; in assay [6] (read-out: EC50 (nM) 1a Y93H), 1 nM.
Regarding `COC(=O)N[C@H](C(=O)N1C[C@@]2(CCOC2)C[C@H]1c1ncc(-c2ccc(-c3ccc4c(ccc5nc([C@@H]6CCCN6C(=O)[C@@H](NC(=O)OC)C(C)C)[nH]c54)c3)cc2)[nH]1)C(C)C` [drawing 230], the half-maximal effective concentration (EC50) came to 0.01 nM in assay [1] (setting [9]); 0.5 nM in assay [2] (read-out: 1a EC50 (nM) M28T); 0.4 nM in assay [3] (read-out: 1a EC50 (nM) Q30R); 1 nM in assay [4] (read-out: 1a EC50 (nM) L31V); 0.4 nM in assay [5] (read-out: 1a EC50 (nM) Y93C); 7 nM in assay [6] (read-out: 1a EC50 (nM) Y93H).
As for `COC(=O)N[C@H](C(=O)N1C[C@@]2(CCCCO2)C[C@H]1c1ncc(-c2ccc(-c3ccc4c(ccc5nc([C@@H]6CCCN6C(=O)[C@@H](NC(=O)OC)C(C)C)[nH]c54)c3)cc2)[nH]1)C(C)C`, the half-maximal effective concentration (EC50) in assay [1] (setting [10]) stood at 0.15 nM; in assay [7], 267 nM; in assay [8], 156 nM; in assay [2] (read-out: EC50 (nM) 1a M28T), 6 nM; in assay [3] (read-out: EC50 (nM) 1a Q30R), 5 nM; in assay [4] (read-out: EC50 (nM) 1a L31V), 44 nM. The values for the 50% effective concentration (EC50) in assay [5] (read-out: EC50 (nM) 1a Y93C) and in assay [6] (read-out: EC50 (nM) 1a Y93H) were 0.7 nM and 6 nM, respectively.
With `COC(=O)N[C@H](C(=O)N1C[C@]2(CCOC2)C[C@H]1c1ncc(-c2ccc(-c3ccc4c(ccc5nc([C@@H]6CCCN6C(=O)[C@@H](NC(=O)OC)C(C)C)[nH]c54)c3)cc2)[nH]1)C(C)C` [drawing 229], the EC50 in assay [1] (setting [9]) was found to be 0.02 nM; in assay [2] (read-out: 1a EC50 (nM) M28T), 3 nM; in assay [3] (read-out: 1a EC50 (nM) Q30R) it was 0.8 nM; in assay [4] (read-out: 1a EC50 (nM) L31V), 11 nM; in assay [5] (read-out: 1a EC50 (nM) Y93C), 0.8 nM; in assay [6] (read-out: 1a EC50 (nM) Y93H), 42 nM.
Consider `COC(=O)N[C@H](C(=O)N1C[C@]2(CCCCO2)C[C@H]1c1ncc(-c2ccc(-c3ccc4c(ccc5nc([C@@H]6CCCN6C(=O)[C@@H](NC(=O)OC)C(C)C)[nH]c54)c3)cc2)[nH]1)C(C)C`, for which the EC50 in assay [1] (setting [10]) came out at 0.01 nM; in assay [7] it was 27 nM; in assay [8], 1 nM; in assay [2] (read-out: EC50 (nM) 1a M28T), 0.01 nM; in assay [3] (read-out: EC50 (nM) 1a Q30R) it was 0.03 nM; in assay [4] (read-out: EC50 (nM) 1a L31V), 0.3 nM. Also, the EC50 in assay [5] (read-out: EC50 (nM) 1a Y93C) was found to be 0.2 nM; in assay [6] (read-out: EC50 (nM) 1a Y93H), 9 nM.
For `COC(=O)N[C@H](C(=O)N1CC2(CCOCC2)C[C@H]1c1ncc(-c2ccc(-c3ccc4c(ccc5nc([C@@H]6CCCN6C(=O)[C@@H](NC(=O)OC)C(C)C)[nH]c54)c3)cc2)[nH]1)C(C)C` [drawing 234], the EC50 in assay [1] (setting [10]) came to 0.03 nM; in assay [7], 32 nM; in assay [8] it was 0.7 nM; in assay [2] (read-out: EC50 (nM) 1a M28T), 0.9 nM; in assay [3] (read-out: EC50 (nM) 1a Q30R) it was 1 nM; in assay [4] (read-out: EC50 (nM) 1a L31V), 6 nM. Also, the concentration for a half-maximal effect (EC50) in assay [5] (read-out: EC50 (nM) 1a Y93C) was 1 nM; in assay [6] (read-out: EC50 (nM) 1a Y93H), 26 nM.
